Data: patent US5849731A, “Indole derivatives and medical application thereof” (Toray Industries, Inc., priority 1995, dated 1998)

Tested on: capsaicin-induced cough
Experiment: Antitussive action in rat, capsaicin-induced cough
Type: in vivo
Details: ip, 0.5 h, dosage for 50% cough inhibition, intraperitoneal, 10% DMSO solution, 30 minutes after administration
Protocol: Evaluation of Antitussive Action in Rat as a Model for Capsaicin-Induced Cough
Cough was induced by forcing rats to inhale capsaicin (60 μM) which was nebulized by an ultrasonic nebulizer, and fed to caps over the rats' heads through silicone tubes by a respirator. Capsaicin was fed for inhalation at a rate of 70 times/min. and 10 ml each time.
Two hundred and seventy minutes before the drug administration, capsaicin was inhaled for 5 minutes, and inducement of coughing was confirmed during this period. Thirty minutes after the drug administration, capsaicin was inhaled for 5 minutes, and the number of induced coughs during capsaicin inhalation was counted. Antitussive effect was evaluated by determining an inhibitory ratio, namely, the ratio of the number of coughs after the drug administration to that before the drug administration. Capsaicin was dissolved in saline. Each drug was dissolved in a 10% DMSO solution and intraperitoneally administered. The effect of the drug is expressed with an ED50 value which is the dosage for 50% cough inhibition

Compound | ED50 [µg/kg]
Oc1ccc2c3c1O[C@H]1c4c(c5cccc6c5n4CC6)C[C@@]4(O)[C@@H](C2)N(CC2CC2)CC[C@]314 [Compound 1, 17-Cyclopropylmethyl-6,7-didehydro-4,5α-epoxy-3,14β-dihydroxy-1',7'-ethylene-6,7,2',3'-indolomorphinan] | 9.14
COc1ccc2c3c1O[C@H]1c4c(c5ccc(OC)c6c5n4CCC6)C[C@@]4(O)[C@@H](C2)N(CC2CC2)CC[C@]314 [Compound 12, 17-cyclopropylmethyl-6,7-didehydro-4,5α-epoxy-3,6'-dimethoxy-14β-hydroxy-1',7'-trimethylene-6,7,2',3'-indolomorphinan] | 2.5
COc1ccc2c3c1O[C@H]1c4c(c5cc(C)cc6c5n4CCC6)C[C@@]4(O)[C@@H](C2)N(CC2CC2)CC[C@]314 [Compound 13, 17-cyclopropylmethyl-6,7-didehydro-4,5α-epoxy-3-methoxy-14β-hydroxy-1',7'-trimethylene-5'-methyl-6,7,2',3'-indolomorphinan] | 5.33
COc1ccc2c3c1O[C@H]1c4c(c5c(C)ccc6c5n4CCC6)C[C@@]4(O)[C@@H](C2)N(CC2CC2)CC[C@]314 [Compound 14, 17-cyclopropylmethyl-6,7-didehydro-4,5α-epoxy-3-methoxy-14β-hydroxy-1',7'-trimethylene-4'-methyl-6,7,2',3'-indolomorphinan] | 23.8
COc1ccc2c3c1O[C@H]1c4c(c5cccc6c5n4CCCC6)C[C@@]4(O)[C@@H](C2)N(CC2CC2)CC[C@]314 [Compound 15, 17-cyclopropylmethyl-6,7-didehydro-4,5α-epoxy-3-methoxy-14β-hydroxy-1',7'-tetramethylene-6,7,2',3'-indolomorphinan] | 9.68
COc1ccc2c3c1O[C@H]1c4c(c5cc(F)cc6c5n4CCC6)C[C@@]4(O)[C@@H](C2)N(CC2CC2)CC[C@]314 [Compound 16, 17-cyclopropylmethyl-6,7-didehydro-4,5α-epoxy-3-methoxy-14β-hydroxy-1',7'-trimethylene-5'-fluoro-6,7,2',3'-indolomorphinan] | 4.73
COc1ccc2c3c1O[C@H]1c4c(c5cccc6c5n4Cc4ccccc4-6)C[C@@]4(O)[C@@H](C2)N(CC2CC2)CC[C@]314 [Compound 17, 17-cyclopropylmethyl-6,7-didehydro-4,5α-epoxy-3-methoxy-14β-hydroxy-1',7'-(2",3"-benzotrimethylene)-6,7,2',3'-indolomorphinan] | 5.02
COc1ccc2c3c1O[C@H]1c4c(c5cc(Cl)cc6c5n4CCC6)C[C@@]4(O)[C@@H](C2)N(CC2CC2)CC[C@]314 [Compound 18, 17-cyclopropylmethyl-6,7-didehydro-4,5α-epoxy-3-methoxy-14β-hydroxy-1',7'-trimethylene-5'-chloro-6,7,2',3'-indolomorphinan] | 13.4
C=CCN1CC[C@]23c4c5ccc(OC)c4O[C@H]2c2c(c4cccc6c4n2CCC6)C[C@@]3(O)[C@H]1C5 [Compound 34, 17-allyl-6,7-didehydro-4,5α-epoxy-3-methoxy-14β-hydroxy-1',7'-trimethylene-6,7,2',3'-indolomorphinan] | 1.1
COc1ccc2c3c1O[C@H]1c4c(c5cc(Br)cc6c5n4CCC6)C[C@@]4(O)[C@@H](C2)N(CC2CC2)CC[C@]314 [Compound 35, 17-cyclopropylmethyl-6,7-didehydro-4,5α-epoxy-3-methoxy-14β-hydroxy-1',7'-trimethylene-5'-bromo-6,7,2',3'-indolomorphinan] | 21.2
COc1ccc2c3c1O[C@H]1c4c(c5cccc6c5n4CCC6(C)C)C[C@@]4(O)[C@@H](C2)N(CC2CC2)CC[C@]314 [Compound 40, 17-cyclopropylmethyl-6,7-didehydro-4,5α-epoxy-3-methoxy-14β-hydroxy-1',7'-(1,1-dimethylpropano)-6,7,2',3'-indolomorphinan] | 2.46
COc1ccc2c3c1O[C@H]1c4c(c5ccc6cccc7c6c5n4CC7)C[C@@]4(O)[C@@H](C2)N(CC2CC2)CC[C@]314 [Compound 42, 17-cyclopropylmethyl-6,7-didehydro-4,5α-epoxy-3-methoxy-14β-hydroxy-1',3"-ethylene-6',7'-benzo-6,7,2',3'-indolomorphinan] | 21.1
COc1ccc2c3c1O[C@H]1c4c(c5c(OC)ccc6c5n4CCC6)C[C@@]4(O)[C@@H](C2)N(CC2CC2)CC[C@]314 [Compound 44, 17-cyclopropylmethyl-6,7-didehydro-4,5α-epoxy-3,4'-dimethoxy-14β-hydroxy-1',7'-trimethylene-6,7,2',3'-indolomorphinan] | 10.9

Target: T1, δ-opioid (Mus musculus, UniProt P32300)
T1 construct: Each of the vas deferens isolated from the mice was hung in a Magnus tube; from tissue; host or cells: isolated vas deferens of male ddy strain mice
Experiment: δ-opioid antagonism against DPDPE in mouse vas deferens (MVD)
Type: biochemical, mouse (male ddy strain)
Details: not given
Protocol: Using mouse vas deferens (MVD), antagonistic compounds were examined for antagonism against a δ-opioid agonist DPDPE, and agonistic compounds were examined for inhibitory activity against MVD contraction by electric stimulation, and for antagonism by a δ-opioid antagonist NTI.
Male ddy strain mice were used in this experiment. Each of the vas deferens isolated from the mice was hung in a Magnus tube which was filled with a Krebes-Henseleit solution (NaCl […]; KCl 4.7 mM; CaCl2 2.5 mM; KH2 PO4 1.1 mM; NaHCO3 25 mM; glucose 11 mM), and aerated with a gas of 5% carbon dioxide and 95% oxygen and maintained at 37° C. Electric stimulation was applied through upper and lower ring-shaped platinum electrodes at 0.1 Hz and 5.0 mS. Tissue contraction was recorded on a polygraph using an isometric transducer.
Initially, DPDPE was added in a cumulative manner to determine the IC50 value (concentration for 50% inhibition of contraction induced by electric stimulation). Next, 100 nM of a sample compound was added to the system beforehand, and 20 minutes later, DPDPE was added in a cumulative manner. According to the above procedure, the ratio of the IC50 value of DPDPE in the presence of the sample compound to that in the absence of it was determined, and the pA2 value was calculated in accordance with the Schild, et al.'s method [Schild, H. O., Br. J. Pharamacol. Chamother. 4, 277 (1949)].

T1 sequence (P32300 whole entry): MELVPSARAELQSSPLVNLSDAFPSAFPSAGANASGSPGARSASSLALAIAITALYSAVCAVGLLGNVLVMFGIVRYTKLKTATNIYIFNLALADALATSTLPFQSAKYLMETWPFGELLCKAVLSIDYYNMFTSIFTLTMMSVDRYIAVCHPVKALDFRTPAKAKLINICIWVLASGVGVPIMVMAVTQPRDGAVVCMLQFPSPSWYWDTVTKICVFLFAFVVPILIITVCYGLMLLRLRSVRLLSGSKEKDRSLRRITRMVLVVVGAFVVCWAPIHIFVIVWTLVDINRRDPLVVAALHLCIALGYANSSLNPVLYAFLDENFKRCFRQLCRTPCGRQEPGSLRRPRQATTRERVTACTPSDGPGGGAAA

Compound | Kb [nM]
Oc1ccc2c3c1O[C@H]1c4c(c5cc(Cl)cc6c5n4CCC6)C[C@@]4(O)[C@@H](C2)N(CC2CC2)CC[C@]314 [Compound 8, 17-cyclopropylmethyl-6,7-didehydro-4,5α-epoxy-3,14β-dihydroxy-1',7'-trimethylene-5'-chloro-6,7,2',3'-indolomorphinan] | 5.01
COc1cc2c3c(c1)c1c(n3CCC2)[C@@H]2Oc3c(O)ccc4c3[C@@]23CCN(CC2CC2)[C@H](C4)[C@]3(O)C1 [Compound 19, 17-cyclopropylmethyl-6,7-didehydro-4,5α-epoxy-3,14β-dihydroxy-1',7'-trimethylene-5'-methoxy-6,7,2',3'-indolomorphinan] | 1
Oc1ccc2c3c1O[C@H]1c4c(c5cc(Br)cc6c5n4CCC6)C[C@@]4(O)[C@@H](C2)N(CC2CC2)CC[C@]314 [Compound 20, 17-cyclopropylmethyl-6,7-didehydro-4,5α-epoxy-3,14β-dihydroxy-1',7'-trimethylene-5'-bromo-6,7,2',3'-indolomorphinan] | 3.98
Oc1ccc2c3c1O[C@H]1c4c(c5cccc6c5n4CCCCC6)C[C@@]4(O)[C@@H](C2)N(CC2CC2)CC[C@]314 [Compound 21, 17-cyclopropylmethyl-6,7-didehydro-4,5α-epoxy-3,14β-dihydroxy-1',7'-pentamethylene-6,7,2',3'-indolomorphinan] | 10
Oc1ccc2c3c1O[C@H]1c4c(c5cccc6c5n4CCS6)C[C@@]4(O)[C@@H](C2)N(CC2CC2)CC[C@]314 [Compound 22, 17-cyclopropylmethyl-6,7-didehydro-4,5α-epoxy-3,14β-dihydroxy-7',1'-epithioethano-6,7,2',3'-indolomorphinan] | 0.794
Oc1ccc2c3c1O[C@H]1c4c(c5cccc6c5n4CCO6)C[C@@]4(O)[C@@H](C2)N(CC2CC2)CC[C@]314 [Compound 23, 17-cyclopropylmethyl-6,7-didehydro-4,5α-epoxy-3,14β-dihydroxy-7',1'-epoxyethano-6,7,2',3'-indolomorphinan] | 0.158
Oc1ccc2c3c1O[C@H]1c4c(c5c(C(F)(F)F)ccc6c5n4CCC6)C[C@@]4(O)[C@@H](C2)N(CC2CC2)CC[C@]314 [Compound 24, 17-cyclopropylmethyl-6,7-didehydro-4,5α-epoxy-3,14β-dihydroxy-1',7'-trimethylene-4'-trifluoromethyl-6,7,2',3'-indolomorphinan] | 10
CC1(C)Cc2cccc3c4c(n(c23)C1)[C@@H]1Oc2c(O)ccc3c2[C@@]12CCN(CC1CC1)[C@H](C3)[C@]2(O)C4 [Compound 26, 17-cyclopropylmethyl-6,7-didehydro-4,5α-epoxy-3,14β-dihydroxy-1',7'-(2,2-dimethylpropano)-6,7,2',3'-indolomorphinan] | 3.16
COc1ccc2c3c1c1c(n3CCC2)[C@@H]2Oc3c(O)ccc4c3[C@@]23CCN(CC2CC2)[C@H](C4)[C@]3(O)C1 [Compound 27, 17-cyclopropylmethyl-6,7-didehydro-4,5α-epoxy-3,14β-dihydroxy-1',7'-trimethylene-4'-methoxy-6,7,2',3'-indolomorphinan] | 12.6
C=CCN1CC[C@]23c4c5ccc(O)c4O[C@H]2c2c(c4cccc6c4n2CCC6)C[C@@]3(O)[C@H]1C5 [Compound 30, 17-allyl-6,7-didehydro-4,5α-epoxy-3,14β-dihydroxy-1',7'-trimethylene-6,7,2',3'-indolomorphinan] | 12.6
CO[C@@]12Cc3c(n4c5c(cccc35)CCC4)[C@@H]3Oc4c(O)ccc5c4[C@@]31CCN(CC1CC1)[C@@H]2C5 [Compound 66, 17-cyclopropylmethyl-6,7-didehydro-4,5α-epoxy-3-hydroxy-14β-methoxy-1',7'-trimethylene-6,7,2',3'-indolomorphinan] | 0.316

Same assay, conditions: MVD; 100 nM sample compound added 20 minutes before cumulative DPDPE; Schild method

Compound | pA2
Oc1ccc2c3c1O[C@H]1c4c(c5cccc6c5n4CC6)C[C@@]4(O)[C@@H](C2)N(CC2CC2)CC[C@]314 [Compound 1, 17-Cyclopropylmethyl-6,7-didehydro-4,5α-epoxy-3,14β-dihydroxy-1',7'-ethylene-6,7,2',3'-indolomorphinan] | 9.2
